Measurements: patent publication US20130149287A1, “Corticogenesis of Human Pluripotent Cells” (Cambridge Enterprise Limited, priority 2010, published 2013)
Entries after “also recorded” stand apart in the source; their conditions may differ.

Columns and labels:
Type in all cases: cell-based, human
[1] = test system: voltage-gated potassium channels; assay: Whole-cell patch-clamp recording of voltage-gated potassium currents in PSC-derived cortical neurons; details: step depolarizations from holding potential -80 mV to +40
AMPA receptor = assay: Whole cell patch-clamp recording of miniature excitatory post-synaptic currents (mEPSCs) in hESC/hiPSC-derived cortical neurons; details: hESC- and hiPSC-derived cortical neurons, cultures between days 45 and 100
Source text: […] Borosilicate glass electrodes (resistance 6-10 MΩ) were filled with an intracellular solution containing (in mM): 135 K-Gluconate, 7 NaCl, 10 Hepes, 2 Na2ATP, 0.3 Na2GTP, 2 MgCl2. Cells were viewed using a BW50WI microscope (Olympus) with infrared DIC optics. Recordings were made with a Multiclamp 700 A amplifier (Molecular Devices). Signals were filtered at 4 kHz, sampled at 20 kHz with 16-bit resolution, and analysed using Matlab (MathWorks).

gamma-secretase complex = assay: Sandwich ELISA of secreted Aβ40 and Aβ42 in DS cortical neuron culture supernatant under gamma-secretase inhibition; details: DS cortical neurons
Method: Quantification of secreted Aβ40 and Aβ42 was carried out by sandwich ELISA (Invitrogen) of 50 μl of cell culture supernatant from cultures of DS, iPS control and H9 hES cortical neurons. For quantification of water-soluble and insoluble Aβ peptides, water- and formic acid-soluble protein fractions from whole cell extracts of cortical cultures were prepared and levels of each peptide measured by ELISA (Invitrogen). Inhibition of gamma-secretase was carried out in DS cortical cultures by addition of DAPT (Calbiochem) every 48 hours from day 50 of differentiation onwards.

[2] = test system: voltage-gated sodium channels
[3] = test system: hESC and hiPSC cell lines; assay: Efficiency of cortical induction by percentage of Pax6-expressing cells, with or without retinoids; details: retinol acetate and all-trans retinol included together, with dual SMAD inhibition; two hESC and four iPSC lines
Method: hESCs or iPSCs were isolated from MEFs following dissociation to single cells with Accutase (Innovative Cell Technologies) by a 1 hr pre-plate on gelatin-coated dishes in hESC medium supplemented with 10 ng/ml FGF2 and 10 μM ROCK inhibitor (Calbiochem). The non-adherent pluripotent stem cells were harvested and plated on Matrigel (BD) coated 12-well plates in MEF-conditioned hESC medium with 10 ng/ml FGF2. Once the cell culture reached 95% confluence, neural induction was initiated by changing the culture medium to a culture medium that supports neural induction, neurogenesis and neuronal differentiation (referred to as 3N medium), a 1:1 mixture of N2- and B27-containing media. N2 medium: DMEM/F12, N2 (GIBCO), 5 μg/ml Insulin, 1 mM L-Glutamine, 100 μm non-essential amino acids, 100 μM 2-mercaptoethanol, 50 U/ml Penicillin and […] Streptomycin; B27 medium: Neurobasal (Invitrogen), B27 with vitamin A (GIBCO), 200 mM Glutamine, 50 U/ml Penicillin and […] Streptomycin. […] Cells were maintained in this medium for 8-11 days, during which time the efficiency of neural induction was monitored by the appearance of cells with characteristic neuroepithelial cell morphology. […] For quantifying numbers of cells expressing specific cortical neuronal markers, cell cultures were dissociated into single cells with Accutase and resuspended at a density of 100,000 cells/ml. […]

cortical rosettes = assay: Regional identity of early-stage cortical rosettes after hedgehog signalling agonist treatment

**Q.** How did the “voltage-gated outward potassium current” value [1] turn out when `Nc1ccncc1` [4-AP, 4-aminopyridine] was run?
**A.** Its value is “blocks a fast-activating transient fraction of outward K current; also recorded: a transient component of which was blocked”.

**Q.** Which “appearance of mEPSCs” value (AMPA receptor) does the source give for `N#Cc1cc2[nH]c(=O)c(=O)[nH]c2cc1[N+](=O)[O-]` [CNQX] here?
**A.** The value was “blocked the appearance of mEPSCs”.

**Q.** What does the source list for `C[C@H](NC(=O)Cc1cc(F)cc(F)c1)C(=O)N[C@H](C(=O)OC(C)(C)C)c1ccccc1` [DAPT]?
**A.** production/secretion of both Aβ peptides (gamma-secretase complex; longer term 21 day gamma-secretase inhibition): undetectable levels; production of Aβ40 and Aβ42 (secreted) (gamma-secretase complex; short-term 4 day gamma-secretase inhibition): reduces production of both Aβ40 and Aβ42

**Q.** For `NC1=N[C@H](O)[C@H]2[C@H]3O[C@]4(O)O[C@@H]([C@@H](O)[C@@]2(N1)[C@@H]4O)[C@]3(O)CO` [TTX, tetrodotoxin], which “fast-activating and inactivating inward voltage-gated sodium currents” value [2] is on record?
**A.** The value was “completely blocked”.

**Q.** With `CC1=C(/C=C/C(C)=C/C=C/C(C)=C/CO)C(C)(C)CCC1` [all-trans retinol] as the molecule, how does the “cortical neural induction, Pax6 expression” value [3] read?
**A.** Its value is “robust, efficient differentiation of all lines to cortical neural stem/progenitor cells, with almost all cells expressing Pax6”.

**Q.** For `c1ccc2c(Oc3nc(Nc4ccc(N5CCOCC5)cc4)c4ncn(C5CCCCC5)c4n3)cccc2c1` [purapomorphine], which “effect on regional identity of cortical rosettes” value (cortical rosettes) is on record?
**A.** Its value is “ventralises the rosettes, resulting in the genesis of GAD67+ GABAergic interneurons”.

**Q.** For retinol acetate, which “cortical neural induction, Pax6 expression” value [3] is on record?
**A.** Its value is “robust, efficient differentiation of all lines to cortical neural stem/progenitor cells, with almost all cells expressing Pax6”.
